# What was measured:
# [1] = tested on: Rice; experiment: Transplanted rice safety evaluation and weed control effect evaluation in rice field; assay type: in vivo, rice (japonica rice/Indica rice); conditions: Table 7, dose 125 g a.i./ha, 21 days after treatment
# Procedure: (§1) Transplanted rice safety evaluation and weed control effect evaluation in rice field:
# In addition, the rice field soil that loaded into the 1/1,000,000 ha pot was leveled to keep water storage at 3-4 cm depth. The 3 leaf stage rice (japonica rice/Indica rice) was transplanted at 3 cm of transplanting depth the next day. The compound of the present invention was treated by the same way after 5 days of transplantation.
# (§2) The fertility condition of echinochloa crusgali, scirpus juncoides, Bidens tripartita, Leptochloa chinensis, Sagittaria trifolia and Monochoria vaginalis 14 days after the treatment of the compound of the invention and the fertility condition of rice 21 days after the treatment of the compound of the invention respectively with the naked eye. Evaluate the weed control effect with 0-5 activity standard level. Many compounds show excellent activity and selectivity.
# [2] = tested on: Echinochloa crusgali; experiment: as above; assay type: in vivo; conditions: Table 7, dose 125 g a.i./ha, 14 days after treatment
# From the text: as §1
# (§3) Rice field soil was loaded into a 1/1,000,000 ha pot. The seeds of echinochloa crusgali, scirpus juncoides, Bidens tripartita, Sagittaria trifolia, Monochoria vaginalis and Leptochloa chinensis were sowed and gently covered with soil, then left to stand still in greenhouse in the state of 0.5-1 cm of water storage. The tuber of Sagittaria trifolia was planted in the next day or 2 days later. It was kept at 3-4 cm of water storage thereafter. The weeds were treated by dripping the WP or SC water diluents prepared according to the common preparation method of the compounds of the present invention with pipette homogeneously to achieve specified effective amount when echinochloa crusgali, scirpus juncoides, Bidens tripartita, Monochoria vaginalis and Leptochloa chinensis reached 0.5 leaf stage and Sagittaria trifolia reached the time point of primary leaf stage.
# as §2
# [3] = tested on: Scirpus juncoides; experiment: as above; assay type: in vivo; conditions: Table 7, dose 125 g a.i./ha, 14 days after treatment
# From the text: as §1, §3, §2
# [4] = tested on: Monochoria vaginalis; experiment: as above; assay type: in vivo; conditions: Table 7, dose 125 g a.i./ha, 14 days after treatment
# From the text: as §1, §3, §2
# [5] = tested on: Stellaria media; experiment: Weeding effect in post-emergence stage (greenhouse pot spray); assay type: in vivo
# In short: (§4)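 Read-out: fresh-weight growth control rate scored 3 weeks after spraying, mean of three replicates. Plants treated at 2-3 leaf stage by spray tower, doses 500-15 g a.i./ha (500, 250, 125, 60, 15).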
# [6] = tested on: Amaranthus retroflexus; experiment: as above; assay type: in vivo
# In short: as §4
# [7] = tested on: Echinochloa crusgalli; experiment: as above; assay type: in vivo
# In short: as §4
# [8] = tested on: Abutilon theophrasti; experiment: as above; assay type: in vivo; conditions: for Abutilon theophrasti (activity level): Table 3, dose 60 g a.i./ha
# In short: as §4
# [9] = tested on: Digitaria sanguinalis; experiment: as above; assay type: in vivo; conditions: for Digitaria sanguinahs (activity level): Table 3, dose 60 g a.i./ha
# In short: as §4
# [10] = tested on: Indica rice (Huanghuazhan); experiment: Safety test of control experiments on rice; assay type: in vivo; conditions: Dose 250 g a.i./ha
# From the text: (§5) The activity level criteria for plant damage (i.e., growth control rate) are as follows: Comparative Experiments: [table]
# [11] = tested on: Japonica rice (Huaidao No. 5); experiment: Safety test of control experiments on rice; assay type: in vivo; conditions: Dose 250 g a.i./ha
# From the text: as §5
# [12] = tested on: rice and Echinochloa crusgali; experiment: Herbicide selection index between rice and Echinochloa crusgali; assay type: in vivo; conditions: average dose causing 10% phytotoxicity to rice divided by average dose causing 90% control efficiency to Echinochloa crusgali
# [13] = tested on: Setaria viridis; experiment: Weeding effect in post-emergence stage (greenhouse pot spray); assay type: in vivo; conditions: Table 3, dose 60 g a.i./ha
# In short: as §4
SMILES,Rice (safety level) [1],Echinochloa crusgali (activity level) [2],Scirpus juncoides (activity level) [3],Monochoria vaginalis (activity level) [4],"Stellaria media (activity level) ([5]; Table 2, dose 250 g a.i./ha)","Amaranthus retroflexus (activity level) ([6]; Table 2, dose 250 g a.i./ha)","Echinochloa crusgah (activity level) ([7]; Table 2, dose 250 g a.i./ha)","Abutilion theophrasti (activity level) ([8]; Table 2, dose 250 g a.i./ha)","Digitaria sanguinalis (activity level) ([9]; Table 2, dose 250 g a.i./ha)",Indica rice (Huanghuazhan) (plant damage level) [10],Japonica rice (Huaidao No. 5) (plant damage level) [11],Selection index between rice and Echinochloa crusgali [12],Abutilon theophrasti (activity level) [8],Digitaria sanguinahs (activity level) [9],Setaria viridis (activity level) [13],other results
Cc1nnc(NC(=O)c2ccc(C(F)(F)F)c([S+]([O-])C(C)C)c2F)o1 (racemic) [Compound 1-11],0 (Level 0: growth control rate is less than 5%),5 (Level 5: growth control rate is above 85%),5 (Level 5: growth control rate is above 85%),5 (Level 5: growth control rate is above 85%),5 (Level 5: growth control rate is above 85%),5 (Level 5: growth control rate is above 85%),5 (Level 5: growth control rate is above 85%),5 (Level 5: growth control rate is above 85%),5 (Level 5: growth control rate is above 85%),,,,,,,
CCCC[S+]([O-])c1c(C(F)(F)F)ccc(C(=O)Nc2nnc(C)o2)c1F (racemic) [Compound 1-14],0 (Level 0: growth control rate is less than 5%),5 (Level 5: growth control rate is above 85%),5 (Level 5: growth control rate is above 85%),5 (Level 5: growth control rate is above 85%),,,,,,0 (Level 0: growth control rate is less than 5%),0 (Level 0: growth control rate is less than 5%),>5,5 (Level 5: growth control rate is above 85%),5 (Level 5: growth control rate is above 85%),5 (Level 5: growth control rate is above 85%),"Stellaria media (activity level) ([5]; Table 2, dose 125 g a.i./ha): 5 (Level 5: growth control rate is above 85%); Amaranthus retroflexus (activity level) ([6]; Table 2, dose 125 g a.i./ha): 5 (Level 5: growth control rate is above 85%); Echinochloa crusgah (activity level) ([7]; Table 2, dose 125 g a.i./ha): 5 (Level 5: growth control rate is above 85%); Abutilion theophrasti (activity level) ([8]; Table 2, dose 125 g a.i./ha): 5 (Level 5: growth control rate is above 85%); Digitaria sanguinalis (activity level) ([9]; Table 2, dose 125 g a.i./ha): 5 (Level 5: growth control rate is above 85%)"
Cc1nnc(NC(=O)c2ccc(C(F)(F)F)c([S+]([O-])CC(C)C)c2F)o1 (racemic) [Compound 1-20],,,,,5 (Level 5: growth control rate is above 85%),5 (Level 5: growth control rate is above 85%),5 (Level 5: growth control rate is above 85%),5 (Level 5: growth control rate is above 85%),5 (Level 5: growth control rate is above 85%),0 (Level 0: growth control rate is less than 5%),0 (Level 0: growth control rate is less than 5%),>5,5 (Level 5: growth control rate is above 85%),5 (Level 5: growth control rate is above 85%),5 (Level 5: growth control rate is above 85%),
Cc1nnc(NC(=O)c2ccc(C(F)(F)F)c([S+]([O-])CCC(F)(F)F)c2F)o1 (racemic) [Compound 1-52],,,,,,,,,,0 (Level 0: growth control rate is less than 5%),0 (Level 0: growth control rate is less than 5%),>5,5 (Level 5: growth control rate is above 85%),5 (Level 5: growth control rate is above 85%),5 (Level 5: growth control rate is above 85%),"Stellaria media (activity level) ([5]; Table 2, dose 500 g a.i./ha): 5 (Level 5: growth control rate is above 85%); Amaranthus retroflexus (activity level) ([6]; Table 2, dose 500 g a.i./ha): 5 (Level 5: growth control rate is above 85%); Echinochloa crusgah (activity level) ([7]; Table 2, dose 500 g a.i./ha): 5 (Level 5: growth control rate is above 85%); Abutilion theophrasti (activity level) ([8]; Table 2, dose 500 g a.i./ha): 5 (Level 5: growth control rate is above 85%); Digitaria sanguinalis (activity level) ([9]; Table 2, dose 500 g a.i./ha): 5 (Level 5: growth control rate is above 85%)"
COCC[S+]([O-])c1c(C(F)(F)F)ccc(C(=O)Nc2nnc(C)o2)c1F (racemic) [Compound 1-57],0 (Level 0: growth control rate is less than 5%),5 (Level 5: growth control rate is above 85%),5 (Level 5: growth control rate is above 85%),5 (Level 5: growth control rate is above 85%),,,,,,0 (Level 0: growth control rate is less than 5%),0 (Level 0: growth control rate is less than 5%),>5,,,,"Stellaria media (activity level) ([5]; Table 2, dose 500 g a.i./ha): 5 (Level 5: growth control rate is above 85%); Amaranthus retroflexus (activity level) ([6]; Table 2, dose 500 g a.i./ha): 5 (Level 5: growth control rate is above 85%); Echinochloa crusgah (activity level) ([7]; Table 2, dose 500 g a.i./ha): 5 (Level 5: growth control rate is above 85%); Abutilion theophrasti (activity level) ([8]; Table 2, dose 500 g a.i./ha): 5 (Level 5: growth control rate is above 85%); Digitaria sanguinalis (activity level) ([9]; Table 2, dose 500 g a.i./ha): 5 (Level 5: growth control rate is above 85%)"
CCS(=O)(=O)c1c(C(F)(F)F)ccc(C(=O)Nc2nnc(C)o2)c1F [Compound 1-6],0 (Level 0: growth control rate is less than 5%),5 (Level 5: growth control rate is above 85%),5 (Level 5: growth control rate is above 85%),5 (Level 5: growth control rate is above 85%),5 (Level 5: growth control rate is above 85%),5 (Level 5: growth control rate is above 85%),5 (Level 5: growth control rate is above 85%),5 (Level 5: growth control rate is above 85%),5 (Level 5: growth control rate is above 85%),0 (Level 0: growth control rate is less than 5%),0 (Level 0: growth control rate is less than 5%),>5,,,,"Stellaria media (activity level) ([5]; Table 2, dose 125 g a.i./ha): 5 (Level 5: growth control rate is above 85%); Amaranthus retroflexus (activity level) ([6]; Table 2, dose 125 g a.i./ha): 5 (Level 5: growth control rate is above 85%); Echinochloa crusgah (activity level) ([7]; Table 2, dose 125 g a.i./ha): 5 (Level 5: growth control rate is above 85%); Abutilion theophrasti (activity level) ([8]; Table 2, dose 125 g a.i./ha): 5 (Level 5: growth control rate is above 85%); Digitaria sanguinalis (activity level) ([9]; Table 2, dose 125 g a.i./ha): 5 (Level 5: growth control rate is above 85%)"
Cc1nnc(NC(=O)c2ccc(C(F)(F)F)c(SC3CC3)c2F)o1 [Compound 1-76],0 (Level 0: growth control rate is less than 5%),5 (Level 5: growth control rate is above 85%),5 (Level 5: growth control rate is above 85%),5 (Level 5: growth control rate is above 85%),,,,,,,,,,,,

# From patent US20230041563A1, “N-(1,3,4-OXADIAZOL-2-YL)ARYLCARBOXAMIDES OR SALTS THEREOF, PREPARATION METHODS, HERBICIDAL COMPOSITIONS AND USES THEREOF” (priority 2018, published 2023)
